System: human patients having XLMTM
Experiment: Ursodiol treatment of hyperbilirubinemia after resamirigene bilparvovec
Type: in vivo
Method: A subject (115-9001) experienced an SAE of Grade 3 cholestasis which required hospitalization. The subject's medical history included cholestasis and elevated total bilirubin. Approximately 5 weeks after dosing, the subject had elevated direct bilirubin levels (Grade 2) which was treated with ursodiol and resolved 6 weeks later. Approximately 11 weeks after dosing, the subject experienced cholestasis and decision was made to hospitalize the subject 9 days after cholestasis was reported. The cholestasis resolved after approximately 12 weeks. Cholestasis was considered by the Investigator to be possibly related to resamirigene bilparvovec infusion. The subject's baseline history of cholestasis supports underlying disease as causal factor.
Cholestasis and hyperbilirubinemia are considered identified risks associated with resamirigene bilparvovec. Therefore, for subjects receiving resamirigene bilparvovec, ursodiol is recommended as prophylaxis for possible cholestatic syndromes. Ursodiol (ursodeoxycholic acid) is an enterally administered hydrophilic bile acid that can decrease the hydrophobic bile acid content within bile. […]

C[C@H](CCC(=O)O)[C@H]1CC[C@H]2[C@@H]3[C@@H](O)C[C@@H]4C[C@H](O)CC[C@]4(C)[C@H]3CC[C@]12C [ursodiol, Ursodeoxycholic acid]
Transient hyperbilirubinemia following resamirigene bilparvovec: response to ursodiol (in some cases): responsive
Elevated direct bilirubin (Grade 2) treated with ursodiol: time to resolution (subject 115-9001, after resamirigene bilparvovec 3.0×10^14 vg/kg): 6 weeks
